From patent publication US20120053208A1 (THE OHIO STATE UNIVERSITY RESEARCH FOUNDATION, priority 2009, published 2012) come the findings set out here.

One series concerns STAT3 phosphorylation. In words: STAT3 phosphorylation by immunoblot in cancer cells with persistently activated STAT3. In kind it is cell-based, human. To be noted: 24 h.
Source text: (§1) The cell extract were processed for immunoblotting using specific antibodies. GAPDH was used as loading control.
(§2) The cell extracts were processed for immunoblotting using specific antibodies. GAPDH was used as loading control.
(§3) GAPDH was used as loading control.
as §2
On the technique in general: Immunoblotting shows a protein as a band on a membrane.

Series [1] has as its system ERK1/2, PKC-δ, mTOR, p70S6K, and AKT phosphorylation. As to the kind of experiment: Phosphorylation of other kinases by immunoblot in breast cancer cells. It is filed as cell-based, human. As to conditions: MDA-MB-231 and MDA-MB-468 cells, 24 h.
Source text: as §1, §2

Series [2] has as its system cells with persistent expression of p-STAT3. In words: Apoptosis (cleaved caspase-3 immunoblot) in cancer cells. In kind it is cell-based, human. To be noted: 24 h.
Source text: as §1, §2, §3, §2, §2

The test system of series [3] is normal human pancreatic duct epithelial cells, normal human lung fibroblasts, normal human mammary epithelial cells. As to the kind of experiment: Apoptosis (cleaved caspase-3 immunoblot) in normal human cells. To be noted: HPDE, HMEC and normal human lung fibroblasts; 24 h.
Source text: as §2

Series [4] deals with downstream targets of STAT3. As to the kind of experiment: Expression of downstream targets of STAT3 by immunoblot. It is filed as cell-based, human. As to conditions: both breast cancer cell lines (MDA-MB-231, MDA-MB-468).
Source text: as §1, §2, §3, §2

Series [5] has as its system STAT3 DNA binding activity. In words: STAT3 DNA binding activity (STAT3 Transcription Factor Kit). It is filed as cell-based, human. To be noted: MDA-MB-231 cells; 10 μM, 24 h. On the procedure:
Cells were treated with the compounds or DMSO (control) for 24 h. The cell extract were analyzed for STAT3 binding activity using STAT3 Transcription Factor Kit.
(§4) Cells were treated with FLLL31 (10 μM) or DSMO (control) for 24 h. The cell extracts were analyzed for STAT3 DNA binding activity using STAT3 and STAT1 Transcription Factor Kits.

The test system of series [6] is STAT1 DNA binding activity. In words: STAT1 DNA binding activity (STAT1 Transcription Factor Kit). In kind it is cell-based, human. To be noted: MDA-MB-231 cells; 10 μM, 24 h. On the procedure: as §4
For series [7], the system named is STAT3 dependent luciferase activity. In words: STAT3-dependent transcriptional luciferase activity (pLucTKS3). In kind it is cell-based, human. As to conditions: MDA-MB-231 cells stably transfected with pLucTKS3; 1-10 μmol/L, 24 hours. On the procedure:
Cells were incubated with the compounds for 24 h and were then harvested for luciferase activity analysis.
Expression of luciferase is thus contingent upon the phosphorylation and activation of STAT3.

In series [8] the test system is eight cancer cell lines with elevated levels of STAT3 phosphorylation. In words: Anti-proliferative activity in a panel of eight cancer cell lines. It is filed as cell-based, human.
The next series has as its target JAK2 kinase (Homo sapiens, UniProt O60674). As to the kind of experiment: JAK2 kinase assay (HTScan JAK2 kinase assay kit). To be noted: at 10 μM.

Sequence of JAK2 kinase (O60674 whole entry): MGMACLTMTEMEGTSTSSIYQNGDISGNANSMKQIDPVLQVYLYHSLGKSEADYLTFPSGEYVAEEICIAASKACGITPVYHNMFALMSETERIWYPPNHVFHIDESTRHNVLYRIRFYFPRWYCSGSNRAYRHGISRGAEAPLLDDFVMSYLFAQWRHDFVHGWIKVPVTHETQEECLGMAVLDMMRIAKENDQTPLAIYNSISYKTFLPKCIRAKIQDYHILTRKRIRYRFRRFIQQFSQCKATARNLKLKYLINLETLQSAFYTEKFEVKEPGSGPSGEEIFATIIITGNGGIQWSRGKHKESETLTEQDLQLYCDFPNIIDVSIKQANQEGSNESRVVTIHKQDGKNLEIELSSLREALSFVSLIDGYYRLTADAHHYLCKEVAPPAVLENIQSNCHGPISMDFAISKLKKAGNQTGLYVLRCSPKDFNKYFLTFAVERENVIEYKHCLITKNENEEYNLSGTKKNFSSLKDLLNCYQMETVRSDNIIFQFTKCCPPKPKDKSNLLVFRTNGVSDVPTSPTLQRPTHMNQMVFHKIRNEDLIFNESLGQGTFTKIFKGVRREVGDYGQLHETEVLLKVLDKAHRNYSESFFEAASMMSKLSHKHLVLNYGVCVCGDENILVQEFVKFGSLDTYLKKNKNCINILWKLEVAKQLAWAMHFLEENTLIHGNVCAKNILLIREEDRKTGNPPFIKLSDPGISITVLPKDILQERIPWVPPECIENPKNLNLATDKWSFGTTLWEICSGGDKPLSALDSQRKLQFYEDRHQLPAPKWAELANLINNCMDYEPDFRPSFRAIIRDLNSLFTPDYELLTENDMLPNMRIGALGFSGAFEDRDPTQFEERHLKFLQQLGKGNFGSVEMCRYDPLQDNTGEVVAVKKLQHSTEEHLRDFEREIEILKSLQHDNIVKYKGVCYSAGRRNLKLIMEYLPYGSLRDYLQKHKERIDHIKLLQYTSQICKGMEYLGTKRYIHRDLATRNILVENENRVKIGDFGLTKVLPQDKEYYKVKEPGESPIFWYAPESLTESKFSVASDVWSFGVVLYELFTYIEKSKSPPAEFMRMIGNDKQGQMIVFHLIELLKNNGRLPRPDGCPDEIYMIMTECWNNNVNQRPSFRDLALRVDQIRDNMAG
Method for JAK2 kinase: JAK2 kinase assay was performed using a HTScan JAK2 kinase assay kit.

For the compound `COc1ccc(/C=C/C(=O)C(C)(C)C(=O)/C=C/c2ccc(OC)c(OC)c2)cc1OC` [FLLL31], the “inhibition of STAT3 phosphorylation” value with STAT3 phosphorylation (MDA-MB-231 breast cancer cells, 2.5 and 5 μM) is recorded as “inhibited STAT3 phosphorylation”; in the series with STAT3 phosphorylation (MDA-MB-468 breast cancer cells, 2.5, 5 and 10 μM), “inhibited STAT3 phosphorylation”. The “effects on ERK1/2, PKC-δ, mTOR, p70S6K, and AKT phosphorylation” value in series [1] is on record as “little effects”. In addition, the “induction of apoptosis (cleavages of caspase-3)” value in series [2] (MDA-MB-231 and MDA-MB-468 breast cancer cells) is recorded as “induction of apoptosis”. The “induction of apoptosis (cleaved caspase-3)” value in series [2] (PANC-1, BXPC-3 and SK-BR-3 cells, 5 or 10 μM) was “induce apoptosis”. In addition, the “induction of apoptosis in normal human cells” value in [3] was “no apoptosis induction”. The “down-regulation of cyclin D1” value in series [4] is recorded as “down-regulation of cyclin D1”. The “inhibition of STAT3 DNA binding activity” value in [5] is on record as “statistically significant inhibition”. Also, in [5], the “potency of STAT3 DNA binding inhibition relative to curcumin” value is reported as “significantly more potent than curcumin”. Also, the “selectivity: STAT3 versus STAT1 DNA binding activity” value in series [6] is listed as “inhibit STAT3 but not STAT1 DNA binding activity”. In series [7], the “inhibition of STAT3 dependent luciferase activity” value is “dose-dependent inhibition”. The “IC50, anti-proliferative activity” value in series [8] (SUM-159, ZR-75-1, BXPC-3, HPAC, PANC-1, SW1990, U373, U266) is on record as “submicromolar”. Further, the “anti-proliferative potency relative to WP1066, Stattic, S31-201, SD1029 and AG490” value in series [8] (panel of eight cancer cell lines) is “more potent than the other inhibitors”.
Turning to `C[C@H](NC(=O)/C(C#N)=C/c1cccc(Br)n1)c1ccccc1` [WP1066, reference compound], in the series with STAT3 phosphorylation (U373 human glioblastoma cells, 5 μM), the “inhibition of STAT3 phosphorylation” value is given as “inhibit STAT3 phosphorylation”. Besides, the induction of apoptosis result in series [2] (U373 cells, 5 μM) was “induce apoptosis”.
For the compound `COc1cc(C=CC(=O)CC(=O)C=Cc2ccc(O)c(OC)c2)ccc1O` [curcumin, 1,7-bis(4-hydroxy-3-methoxyphenyl)-1,6-heptadien-3,5-dione, reference compound], the “inhibition of STAT3 DNA binding activity” value in series [5] is given as “inhibit STAT3 DNA binding activity”. The JAK2 inhibition entry at JAK2 kinase was “did not show any JAK2 inhibition”.
